Experimental data from US20240025891A1 (Celgene Corporation, priority 2020, published 2024).

Each compound was assayed on Dirofilaria immitis microfilariae and 4th stage larvae (L4) (assay: Heartworm screen Dirofilaria immitis (DiMF and DiL4 assays)). Conditions: read-out: D. immitis Act class.
Format: cell-based
Protocol: Heartworm Screen Dirofilaria immitis (D. immitis)
(§1) Dirofilaria immitis, Microfilaria (DiMF) Assay. Compounds were dissolved and serially diluted in DMSO. Aliquots were spotted to the empty wells of assay plates. Media and microfilariae of Dirofilaria immitis were added to each well to dilute the test compounds to the desired concentrations. Assay plates were incubated for approximately 72 hours, and the larvae in each well were observed microscopically for drug effect. Microfilariae in each well were assessed subjectively for survival or paralysis, and results were reported as Minimum Effective Dose (MED).
as §1, with “L4 stage (DiL4)” for “Microfilaria (DiMF)”, “4th stage larvae (L4)” for “microfilariae”, “Larvae” for “Microfilariae”
Active and selective (DiL4 vs. DiMF potency) example compounds were subsequently evaluated in heartworm positive dog studies to correlate the in vitro selectivity profile with in vivo effects on circulating microfilariae.

Structure (SMILES) | IC50
CC(=O)N(C)c1cc(C(F)(F)F)cnc1Nc1nc(-c2cc(OC(C)C)ccn2)cs1 [Example 82, N-(2-(4-(4-isopropoxypyridin-2-yl)thiazol-2-ylamino)-5-(trifluoromethyl)pyridin-3-yl)-N-methylacetamide] | 200 to 500 nM
c1ccc(-c2csc(Nc3cc4ccccc4cn3)n2)nc1 [Example 128, N-(isoquinolin-3-yl)-4-(pyridin-2-yl)thiazol-2-amine] | 200 to 500 nM
CCOc1cccnc1-c1csc(Nc2ncccc2C)n1 [Example 77, 4-(3-ethoxypyridin-2-yl)-N-(3-methylpyridin-2-yl)thiazol-2-amine] | < 200 nM
CC(=O)N(C)c1cc(C(F)(F)F)cnc1Nc1nc(-c2ccc(OC(C)C)cn2)cs1 [Example 93, N-(2-(4-(5-isopropoxypyridin-2-yl)thiazol-2-ylamino)-5-(trifluoromethyl)pyridin-3-yl)-N-methylacetamide] | 500 to 5000 nM
CC(C)c1cnc(Nc2nc(-c3ccccn3)cs2)cc1C(F)(F)F [Example 127, N-(5-isopropyl-4-(trifluoro-methyl)pyridin-2-yl)-4-(pyridin-2-yl)thiazol-2-amine] | < 200 nM
c1ccc(-c2csc(Nc3ccc4cc[nH]c4n3)n2)nc1 [Example 134, 4-(pyridin-2-yl)-N-(1H-pyrrolo [2,3-b]pyridin-6-yl)thiazol-2-amine] | 500 to 5000 nM
CCOc1ccc(Nc2nc(-c3ccc(OCC)cn3)cs2)nc1 [Example 87, N,4-bis(5-ethoxypyridin-2-yl)thiazol-2-amine] | < 200 nM
CC(=O)N(C)c1cc(C(F)(F)F)cnc1Nc1nc(-c2cc(OC3COC3)ccn2)cs1 [Example 73, N-methyl-N-(2-(4-(4-(oxetan-3-yloxy)pyridin-2-yl)thiazol-2-ylamino)-5-(trifluoromethyl)pyridin-3-yl)acetamide] | 500 to 5000 nM
Cc1ccnc(Nc2nc(-c3cccnc3)cs2)c1 [Example 226, N-(4-methylpyridin-2-yl)-4-(pyridin-3-yl)thiazol-2-amine] | 200 to 500 nM
CCOc1ccc(-c2csc(Nc3nc(C)ccc3C)n2)nc1 [Example 86, N-(3,6-dimethylpyridin-2-yl)-4-(5-ethoxypyridin-2-yl)thiazol-2-amine] | 200 to 500 nM
CCc1sc(Nc2cc(C)ccn2)nc1-c1ccccn1 [Example 184, 5-ethyl-N-(4-methylpyridin-2-yl)-4-(pyridin-2-yl)thiazol-2-amine] | 200 to 500 nM
CCOc1ccc(-c2csc(Nc3ncccc3C3CC3)n2)nc1 [Example 83, N-(3-cyclopropylpyridin-2-yl)-4-(5-ethoxypyridin-2-yl)thiazol-2-amine] | 500 to 5000 nM
Cc1ccnc(Nc2nc(-c3cc(-c4ccccc4)ccn3)cs2)c1 [Example 101, N-(4-methylpyridin-2-yl)-4-(4-phenylpyridin-2-yl)thiazol-2-amine] | < 200 nM
Cc1ccc(-c2csc(Nc3cc(C)ccn3)n2)nc1 [Example 1, N-(4-Methylpyridin-2-yl)-4-(5-methylpyridin-2-yl)thiazol-2-amine] | < 200 nM
Cc1cccnc1Nc1nc(-c2ccc(Cl)cn2)cs1 [Example 94, 4-(5-chloropyridin-2-yl)-N-(3-methylpyridin-2-yl)thiazol-2-amine] | 200 to 500 nM
CNC(=O)c1ccc(-c2ccnc(Nc3nc(-c4ccccn4)cs3)c2)cc1 [Example 171, N-methyl-4-(2-(4-(pyridin-2-yl)thiazol-2-ylamino)pyridin-4-yl)benzamide] | 500 to 5000 nM
Cc1cccnc1-c1csc(Nc2cc(-c3ccccc3)ccn2)n1 [Example 100, 4-(3-methylpyridin-2-yl)-N-(4-phenylpyridin-2-yl)thiazol-2-amine] | 200 to 500 nM
CCOc1ccnc(-c2csc(Nc3cc(C)ccn3)n2)c1 [Example 224, 4-(4-ethoxypyridin-2-yl)-N-(4-methylpyridin-2-yl)thiazol-2-amine] | 200 to 500 nM

Structure (SMILES) | IC50
CCCCc1ccnc(Nc2nc(-c3ccccn3)cs2)c1 [Example 167, N-(4-butylpyridin-2-yl)-4-(pyridin-2-yl)thiazol-2-amine] | < 200 nM
CCOc1ccc(-c2csc(Nc3cccc(C)n3)n2)nc1 [Example 90, 4-(5-ethoxypyridin-2-yl)-N-(6-methylpyridin-2-yl)thiazol-2-amine] | 500 to 5000 nM
CC(=O)N(C)c1cc(C(F)(F)F)cnc1Nc1nc(-c2ccccn2)cs1 [Example 212, N-methyl-N-(2-(4-(pyridin-2-yl)thiazol-2-ylamino)-5-(trifluoro-methyl)pyridin-3-yl) acetamide] | 500 to 5000 nM
CCOc1cccc(-c2csc(Nc3cc(C)ccn3)n2)n1 [Example 78, 4-(6-ethoxypyridin-2-yl)-N-(4-methylpyridin-2-yl)thiazol-2-amine] | 500 to 5000 nM
CCOc1ccc(-c2csc(Nc3ncc(C(F)(F)F)cc3C)n2)nc1 [Example 84, 4-(5-ethoxypyridin-2-yl)-N-(3-methyl-5-(trifluoromethyl)pyridin-2-yl)thiazol-2-amine] | 200 to 500 nM
Cc1ccnc(Nc2nc(-c3ccccn3)c(COCC3CCC3)s2)c1 [Example 182, 5-((cyclobutyl-methoxy)methyl)-N-(4-methylpyridin-2-yl)-4-(pyridin-2-yl)thiazol-2-amine] | < 200 nM
CCOc1cnc(-c2csc(Nc3ncccc3C)n2)c(C)c1 [Example 75, 4-(5-ethoxy-3-methylpyridin-2-yl)-N-(3-methylpyridin-2-yl)thiazol-2-amine] | < 200 nM
c1ccc(-c2cccnc2Nc2nc(-c3ccccn3)cs2)cc1 [Example 125, N-(3-phenylpyridin-2-yl)-4-(pyridin-2-yl)thiazol-2-amine] | 500 to 5000 nM
Cc1ccnc(-c2csc(Nc3ncccc3-c3ccccc3)n2)c1 [Example 99, 4-(4-methylpyridin-2-yl)-N-(3-phenylpyridin-2-yl)thiazol-2-amine] | < 200 nM
Cc1ccnc(Nc2nc(-c3ccccn3)c(C)s2)c1 [Example 132, 5-methyl-N-(4-methyl-pyridin-2-yl)-4-(pyridin-2-yl)thiazol-2-amine] | 200 to 500 nM
c1ccc(-c2ccc(Nc3nc(-c4ccccn4)cs3)nc2)cc1 [Example 221, N-(5-phenylpyridin-2-yl)-4-(pyridin-2-yl)thiazol-2-amine] | < 200 nM
Cc1ccnc(Nc2nc(-c3ccccn3)c(CCOC3CCC3)s2)c1 [Example 180, 5-(2-cyclobutoxy-ethyl)-N-(4-methylpyridin-2-yl)-4-(pyridin-2-yl)thiazol-2-amine] | < 200 nM
Cc1ccnc(Nc2nc(-c3ccccn3)c(CN3CCC3)s2)c1 [Example 183, 5-(azetidin-1-ylmethyl)-N-(4-methylpyridin-2-yl)-4-(pyridin-2-yl)thiazol-2-amine] | 500 to 5000 nM
c1ccc(-c2csc(Nc3cc(-c4cccc5ccccc45)ccn3)n2)nc1 [Example 175, N-(4-(naphthalen-1-yl)pyridin-2-yl)-4-(pyridin-2-yl)thiazol-2-amine] | < 200 nM
FC(F)(F)c1ccc(Nc2nc(-c3ccccn3)cs2)nc1 [Example 217, 4-(pyridin-2-yl)-N-(5-(trifluoromethyl)pyridin-2-yl)thiazol-2-amine] | < 200 nM
CCCc1ccnc(Nc2nc(-c3ccccn3)cs2)c1 [Example 172, N-(4-propylpyridin-2-yl)-4-(pyridin-2-yl)thiazol-2-amine] | < 200 nM
COc1ccc(Nc2nc(-c3ccccn3)cs2)nc1 [Example 218, N-(5-methoxypyridin-2-yl)-4-(pyridin-2-yl)thiazol-2-amine] | 500 to 5000 nM
